Results as given in patent US20190330142A1, “INHIBITORS OF MTOR-DEPTOR INTERACTIONS AND METHODS OF USE THEREOF” (The Regents of the University of California, priority 2016, published 2019).
Entries after “also recorded” stand apart in the source; their conditions may differ. Where two headings read alike, the source gives them in different places.

Experiments:
[1] = tested on: p70 phosphorylation (mTORC1 activity) in 8226 cells; test: p70 phosphorylation Western blot (TORC1 activity) in 8226 cells; type: cell-based; settings: for p70 phosphorylation vs the parent B / induction of p70 phosphorylation / p70 phosphorylation vs compound B at lower concentrations: 6 hrs; for p70 phosphorylation vs the parent B: compound B arbitrarily 1; for p70 phosphorylation vs compound B at lower concentrations: as low as 0.25 uM
Procedure: In mTORC1, mTOR phosphorylates the p70S6 kinase.
(§1) The 8226 and MM1.S myeloma cell lines were purchased from ATCC. The cell lines were characterized by FISH analysis and shown to contain MAF/Ig translocations. Western blot confirmed a significant over-expression of DEPTOR protein. Both lines were tested for mycoplasma within the last 6 months and were negative. Western blot assay—Protein was extracted and separated by 12.5% SDS-PAGE as previously described (see new ref below). Proteins were transferred to polyvinylidene difluoride membranes and their expression was detected utilizing specific antibodies purchased from Cell Signaling (Beverly, Mass.).

8226 MM cell line = test: MTT cytotoxicity assay, 8226 MM cells; settings: for IC50: 48 h; for anti-MM cytotoxicity in MTT assay compared to parent B: 48 hr MTT
Procedure: In mTORC1, mTOR phosphorylates the p70S6 kinase. Thus, a Western blot was used to test for induction of p70 phosphorylation in this secondary screen. Compounds were tested at 0.5, 1, and 2 uM with 6 hrs in vitro exposure. […] A summary of the p70 phosphorylation data from 4 separate experiments where derivatives were used at 0.5 uM, is shown in FIG. 3B. These first 8 derivatives were also screened for cytotoxicity against the same 8226 MM cell line in 48 hr MTT assays.
P70 phosphorylation was measured in 8226 cells treated for 6 hrs. […] The structures and biological activity of all derivatives are shown in Tables 1-4, categorized by structural modification.
The MTT assay was performed by seeding 1-2×10^4 target cells in 0.1 ml of complete media into wells of a 96 well microtiter plate. After incubation with compounds, the reduction of MTT to formazan by live cells was determined with a microplate ELISA reader equipped with a 570 nm filter.
The induction of p70 phosphorylation by derivative compounds was determined by densitometry, comparing immunoblot signals of phosphorylated p70 vs total p70. This ratio was then compared to that resulting from parental compound B, with the latter ratio arbitrarily placed at ‘1’. The IC50 for MTT cytotoxicity was determined using a range of concentrations of derivatives. Percent apoptosis was enumerated by flow cytometry in drug-treated cultures by subtracting control apoptosis determined from DMSO-treated cultures.

MM1.S MM cell line = test: MTT cytotoxicity assay, MM1.S cells; type: cell-based; settings: Homo sapiens, 48 hr
Procedure: The MTT assay was performed by seeding 1-2×10^4 target cells in 0.1 ml of complete media into wells of a 96 well microtiter plate. After incubation with compounds, the reduction of MTT to formazan by live cells was determined with a microplate ELISA reader equipped with a 570 nm filter. Quadruplicate wells were run for each group and the SD of each group was always <5% of the mean.

p21 expression = p21 expression immunoblot; type: cell-based
Procedure: (§2) These were then studied in more detail. […] This was clearly shown for 4d, 4e, 4 g, and 3 g.
as §1

8226 cells = test: apoptosis assay (activated caspase 3, flow cytometry) in 8226 cells; type: cell-based; settings: 48 hrs
Procedure: as §2
To identify apoptotic cells, a phycoerythrin (PE)-conjugated antibody specific for activated caspase 3 (BD Biosciences) was used. For staining, 10^6 cells were washed with PB S and fixed and permeabilized with 0.5 ml cytofix/cytoperm solution. The cells were then incubated with a 1:5 dilution of PE-conjugated monoclonal anti-caspase 3 antibody for 30 mins and analyzed by flow cytometry.

[2] = 8226 cells, 0.5 uM, compared to compound B
[3] = read-out: MTT (IC50, uM) 8226, 48 hr

Row | Structure (SMILES) | p70 phosphorylation vs the parent B ([1]; 8226 cells, 0.5 uM) | IC50 (8226 MM cell line; read-out: MTT (IC50, uM) 8226) [µM] | IC50 (MM1.S MM cell line) [µM] | anti-MM cytotoxicity in MTT assay compared to parent B (8226 MM cell line) | induction of p70 phosphorylation [1, 2] | other results
1 | ClC1=C(Cl)C(Cl)=C(Cl)C1=NNC1CCCCC1 [3b, 1-Cyclohexyl-2-(perchlorocyclopenta-2,4-dien-1-ylidene)hydrazine] | no increase | > 3 | > 3 | – | – | –
2 | ClC1=C(Cl)C(Cl)=C(Cl)C1=NNc1ccccc1 [3d, 1-(Perchlorocyclopenta-2,4-dien-1-ylidene)-2-phenylhydrazine] | – | 0.6 | 2 | lower IC50s; also recorded: enhanced cytotoxic effects | – | –
3 | Fc1cccc(NN=C2C(Cl)=C(Cl)C(Cl)=C2Cl)c1 [3e, 1-(3-Fluorophenyl)-2-(perchlorocyclopenta-2,4-dien-1-ylidene)hydrazine] | – | 0.5 | 1.5 | lower IC50s; also recorded: enhanced cytotoxic effects | – | –
4 | ClC1=C(Cl)C(Cl)=C(Cl)C1=NNc1cc(Cl)cc(Cl)c1 [3f, 1-(3,5-dichlorophenyl)-2-(perchlorocyclopenta-2,4-dien-1-ylidene)hydrazine] | – | 0.8 | 2 | lower IC50s; also recorded: enhanced cytotoxic effects | – | –
5 | Cc1cccc(NN=C2C(Cl)=C(Cl)C(Cl)=C2Cl)c1 [3h, 1-(Perchlorocyclopenta-2,4-dien-1-ylidene)-2-(m-tolyl)hydrazine] | no increase | 2 | > 3 | – | – | –
6 | COc1cccc(NN=C2C(Cl)=C(Cl)C(Cl)=C2Cl)c1 [3i, 1-(3-Methoxyphenyl)-2-(perchlorocyclopenta-2,4-dien-1-ylidene)hydrazine] | no increase | > 3 | > 3 | – | – | –
7 | Fc1ccccc1NN=C1C(Cl)=C(Cl)C(Cl)=C1Cl [3j, 1-(2-Fluorophenyl)-2-(perchlorocyclopenta-2,4-dien-1-ylidene)hydrazine] | no increase | > 3 | > 3 | – | no activity | –
8 | ClC1=C(Cl)C(Cl)=C(Cl)C1=NN(c1ccccc1)c1ccccc1 [3l, 2-(Perchlorocyclopenta-2,4-dien-1-ylidene)-1,1-diphenylhydrazine] | no increase | > 3 | > 3 | – | – | –
9 | CC(=O)NN=C1C(Cl)=C(Cl)C(Cl)=C1Cl [4c, N′-(Perchlorocyclopenta-2,4-dien-1-ylidene)acetohydrazide] | no increase | 1 | – | – | no increase | –
10 | CC(C)(C)C(=O)NN=C1C(Cl)=C(Cl)C(Cl)=C1Cl [4d, N′-(Perchlorocyclopenta-2,4-dien-1-ylidene)pivalohydrazide] | – | 0.12 | 2 | enhanced cytotoxic effects | – | p70 phosphorylation vs compound B at lower concentrations [1]: significantly more effective; p21 expression compared to parent compound B (p21 expression): enhanced p21 expression; apoptosis activity compared to parent compound B (8226 cells): enhanced compared to parent compound B
11 | Cc1ccc(C(=O)N(N=C2C(Cl)=C(Cl)C(Cl)=C2Cl)C(=O)c2ccc(C)cc2)cc1 [4f, 4-Methyl-N-(4-methylbenzoyl)-N′-(perchlorocyclopenta-2,4-dien-1-ylidene)benzohydrazide] | – | 0.5 | 0.5 | enhanced cytotoxic effects | – | –
12 | C#CC(C)(C)OC(=O)NN=C1C(Cl)=C(Cl)C(Cl)=C1Cl [4i, 2-Methylbut-3-yn-2-yl 2-(perchlorocyclopenta-2,4-dien-1-ylidene)hydrazine-1-carboxylate] | – | > 5 | – | – | minimal increase | –
13 | NN=C1c2ccccc2-c2ccccc21 [6a, (9H-Fluoren-9-ylidene)hydrazine] | no increase | > 5 | – | did not show any improvement | did not show any improvement | –
14 | NN=c1c2ccccc2oc2ccccc12 [6b, (9H-Xanthen-9-ylidene)hydrazine] | no increase | > 5 | > 5 | did not show any improvement | did not show any improvement | –
15 | Fc1cccc(NN=C2c3ccccc3-c3ccccc32)c1 [6d, 1-(9H-Fluoren-9-ylidene)-2-(3-fluorophenyl)hydrazine] | no increase | > 5 | > 5 | did not show any activity | did not show any activity | –
16 | CC(C)(C)OC(=O)NN=C1c2ccccc2-c2ccccc21 [6e, tert-Butyl 2-(9H-fluoren-9-ylidene)hydrazine-1-carboxylate] | no increase | > 5 | > 5 | did not show any activity | did not show any activity | –
17 | ON=C1C(Cl)=C(Cl)C(Cl)=C1Cl [7a, 2,3,4,5-Tetrachlorocyclopenta-2,4-dien-1-one oxime] | no increase | – | – | poor activity | poor activity | IC50 (8226 MM cell line; [3]): > 5 µM
18 | COC1(OC)C(Cl)=C(Cl)C(Cl)=C1Cl [7b, 1,2,3,4-Tetrachloro-5,5-dimethoxycyclopenta-1,3-diene] | no increase | – | – | poor activity | poor activity | IC50 (8226 MM cell line; [3]): > 5 µM
19 | CN(C)N=C1C(Cl)=C(Cl)C(Cl)=C1Cl [compound 3a, 1,1-Dimethyl-2-(perchlorocyclopenta-2,4-dien-1-ylidene)hydrazine] | no increase | > 3 | > 3 | – | – | –
20 | CC(C)(C)NN=C1C(Cl)=C(Cl)C(Cl)=C1Cl [compound 3c, 1-(tert-Butyl)-2-(perchlorocyclopenta-2,4-dien-1-ylidene)hydrazine] | no increase | > 3 | > 3 | – | only modest activity | –
21 | O=C(NN=C1C(Cl)=C(Cl)C(Cl)=C1Cl)c1ccccc1 [compound 4a, N′-(Perchlorocyclopenta-2,4-dien-1-ylidene)benzohydrazide] | – | 0.6 | 0.8 | enhanced cytotoxic effects | – | toxicity to 8226 cells in p70 experiment ([1]; 0.5 uM): considerable cell death; enhancement of p70 phosphorylation ([1]; 8226 cells, 0.05-0.2 uM): no enhancement of p70 phosphorylation; induction of p70 phosphorylation ([1]; 8226 cells, 1 or 2 uM): toxic and showed degradation of p70
22 | O=C(c1ccccc1)N(N=C1C(Cl)=C(Cl)C(Cl)=C1Cl)C(=O)c1ccccc1 [compound 4b, N-Benzoyl-N′-(perchlorocyclopenta-2,4-dien-1-ylidene)benzohydrazide] | – | 0.8 | 2 | lower IC50s; also recorded: enhanced cytotoxic effects | more effective than the parent compound B | –
23 | O=C(c1ccc(F)cc1)N(N=C1C(Cl)=C(Cl)C(Cl)=C1Cl)C(=O)c1ccc(F)cc1 [compound 4e, 4-Fluoro-N-(4-fluorobenzoyl)-N′-(perchlorocyclopenta-2,4-dien-1-ylidene)benzohydrazide] | – | 0.25 | 0.3 | enhanced cytotoxic effects | – | p70 phosphorylation vs compound B at lower concentrations [1]: significantly more effective; p21 expression compared to parent compound B (p21 expression): enhanced p21 expression; apoptosis activity compared to parent compound B (8226 cells): enhanced compared to parent compound B
24 | C#CCOC(=O)NN=C1C(Cl)=C(Cl)C(Cl)=C1Cl [compound 4h, Prop-2-yn-1-yl 2-(perchlorocyclopenta-2,4-dien-1-ylidene)hydrazine-1-carboxylate] | – | 0.8 | – | some cytotoxicity; also recorded: enhanced cytotoxic effects | minimal increase | –
